{"source": "patent US20250387322A1", "about": "“DRUG DELIVERY AGENTS FOR PREVENTION OR TREATMENT OF PULMONARY DISEASE” (UNIVERSITY INDUSTRY FOUNDATION, YONSEI UNIVERSITY WONJU …, priority 2018, published 2025)", "key": {"[1]": {"test_system": "C57BL/6 mice with lung cancer"}, "[2]": {"test_system": "lung cancer metastasis model", "assay": "Optical imaging of carrier/drug distribution in lung cancer metastasis model", "type": "in vivo", "procedure": "FIG. 9 is an optical microscope image of major organs 3 hours after injecting a lung disease drug delivery carrier according to one Example of the present disclosure and Comparative Example into a lung cancer metastasis model. A GFP filter image may identify the presence or absence of cancer and a location thereof by labeling cancer cells with GFP (green fluorescent protein).\nFIG. 10 is an optical microscope image of a lung cancer metastasis model injected with a lung disease drug delivery carrier according to one Example of the present disclosure.\nFIG. 18A is an image of photographing the locations of cancer tumor and the locations of an injected DOX-DPP (doxorubicin-loaded disc-shaped drug delivery carrier) in an animal model, and FIG. 18B illustrates comparison of the locations of cancer tumor in major organs and amounts of doxorubicin alone (free DOX) or DOX-DPP in major organs. In this regard, the scale bar in FIG. 18A means 5 mm, and the scale bar in FIG. 18B means 20 mm. In addition, the cancer is a cancer cell expressing a GFP green fluorescent protein."}, "[3]": {"settings": "in vivo; cited from earlier work"}, "[4]": {"test_system": "pulmonary fibrosis animal model", "assay": "Bleomycin (BLM) pulmonary fibrosis model: histopathology, immunohistochemistry, micro-CT", "type": "in vivo", "settings": "FIG. 15A", "excerpt": "FIG. 15A illustrates an effect of nintedanib-loaded PLGA disc particles according to one embodiment of the present disclosure, and FIGS. 15B to 15E illustrate experimental results according to each comparison group. […] FIGS. 15A to 15E illustrate results obtained by evaluating tissue morphology and degrees of inflammation and fibrosis through histopathological and immunohistochemical changes. Also, a scale bar in FIG. 15A is 100 μm. […] At this time, Nib is orally administered in the BLM and Nib administered group."}, "[5]": {"settings": "in vivo; cited from earlier work", "remark": "listed apart in the source"}}}
{"smiles": "COc1cccc2c1C(=O)c1c(O)c3c(c(O)c1C2=O)C[C@@](O)(C(=O)CO)C[C@@H]3O[C@H]1C[C@H](N)[C@H](O)[C@H](C)O1", "note": "[Comparative Example 2, doxorubicin]", "values": [{"measurement": "metastatic tumor nodules in lung", "setting": "[1]; FIG. 19B", "value": "more metastatic tumor nodules appeared"}, {"measurement": "cardiac toxicity", "setting": "[1]; long-period administration", "value": "cardiac toxicity appears"}, {"measurement": "inflammation in heart and kidney", "setting": "[1]; organ tissue images, FIG. 20", "value": "strong inflammatory responses occur in the heart and kidney"}, {"measurement": "accumulation in major organs", "setting": "[2]; 3 hours after injecting, lung cancer metastasis model, FIG. 9", "value": "accumulated in the liver and kidneys in addition to the lungs"}, {"measurement": "distribution of drug in major organs", "setting": "[2]; animal model with GFP-expressing cancer, FIGS. 18A, 18B", "value": "the drug is distributed even in major organs"}]}
{"smiles": "CCNC(=O)[C@@H]1CCCN1C(=O)[C@H](CCCNC(=N)N)NC(=O)[C@H](CC(C)C)NC(=O)[C@@H](CC(C)C)NC(=O)[C@H](Cc1ccc(O)cc1)NC(=O)[C@H](CO)NC(=O)[C@H](Cc1c[nH]c2ccccc12)NC(=O)[C@H](Cc1c[nH]cn1)NC(=O)[C@@H]1CCC(=O)N1", "note": "[Leuprolide]", "values": [{"measurement": "bioavailability compared to the subcutaneous route", "setting": "[3]", "value": 50, "unit": "%"}]}
{"smiles": "COC(=O)c1ccc2c(c1)NC(=O)/C2=C(\\Nc1ccc(N(C)C(=O)CN2CCN(C)CC2)cc1)c1ccccc1", "note": "[Nib, nintedanib]", "values": [{"measurement": "inflammatory response and fibrous mass (histopathology)", "setting": "[4]", "value": "an inflammatory response is shown and the formation of a dense fibrous mass is shown"}]}
{"smiles": "Cc1ccc(=O)n(-c2ccccc2)c1", "note": "[pirfenidone]", "values": [{"measurement": "bioavailability", "setting": "[5]", "value": 4.7, "unit": "%"}]}
